Experimental data from patent US8883680B2, “Herbicide combinations with particular sulphonyl ureas” (Bayer Cropscience AG, priority 2006, dated 2014).

Experiments:
Type in all cases: in vivo
[1] = test system: Acacia farnesiana; test: Herbicidal action against woody shrub weeds (greenhouse trials); conditions: Vachellia farnesiana, 672 h
Experimental: (§1) The seeds or rhizome pieces of typical harmful plants were placed into sandy loam soil in round pots, size 13, covered with soil and grown in a greenhouse under good growth conditions. After the harmful plants had emerged, they were treated, as a rule at the 2- to 3-leaf stage, with various dosages of the compositions according to the invention at a water application rate of 100 to 400 I/ha (converted).
(§2) After the treatment (approx. 4 weeks after application), the herbidical activity of the active compounds or active compound mixtures was scored visually by comparing the treated plants with untreated controls. Damage and development of all above-ground parts of the plants was recorded. Scoring was done on a percentage scale (100% action=all plants dead; 50% action=50% of the plants and green plant parts dead; 0% action=no discernible action).
(§3) The results are listed in the tables below, where the activity measured for the independent use of the active compounds (A) and (B) is stated in brackets.
(§4) The plants were cultivated to the 5- to 6-leaf stage. Herbicide application and scoring of the trial were carried out as in Example 1.

[2] = test system: Mimosa pigra; test: as above; conditions: 672 h
Experimental: as §1, §2, §3, §4

[3] = test system: Lamium amplexicaule; test: Herbicidal action against weeds (greenhouse trials), post-emergence; conditions: 672 h, 2- to 3-leaf stage, scored visually approx. 4 weeks after application
Experimental: as §1, §2, §3

[4] = test system: Veronica persica; test: as above; conditions: 672 h, 2- to 3-leaf stage, scored visually approx. 4 weeks after application
Experimental: as §1, §2, §3

[5] = application rate 40 g of ai/ha, 5- to 6-leaf stage, scored visually approx. 4 weeks after application

Nc1cc(Cl)nc(C(=O)O)c1Cl [Aminopyralid, 4-amino-3,6-dichloropyridine-2-carboxylic acid]
inhibition at 60 g/ha ([1]; read-out: Acacia farnesiana % activity): 55%
inhibition at 60 g/ha ([2]; read-out: Mimosa pigra % activity): 73%

COc1cc(OC)nc(NC(=O)NS(=O)(=O)N(C)S(C)(=O)=O)n1 [Amidosulfuron, 1-(4,6-dimethoxypyrimidin-2-yl)-3-mesyl(methyl)sulfamoylurea]
inhibition at 20 g/ha ([3]; application rate 20 g of ai/ha): 18%
inhibition at 20 g/ha ([4]; application rate 20 g of ai/ha): 20%
inhibition at 40 g/ha [1, 5]: 43%
inhibition at 40 g/ha [2, 5]: 20%

Nc1c(Cl)c(Cl)nc(C(=O)O)c1Cl [Picloram, 4-amino-3,5,6-trichloropyridine-2-carboxylic acid]
inhibition at 60 g/ha ([3]; application rate 60 g of ai/ha): 75%
inhibition at 60 g/ha ([4]; application rate 60 g of ai/ha): 62%
